What was measured:
[1] = target: T1, PDE III (Homo sapiens, UniProt Q14432); assay: Type III PDE activity, hydrolysis of [3H]-cyclic AMP; format: biochemical; details: enzyme from human platelets; cyclic AMP 0.2 µM; 2.5% dimethyl sulfoxide
T1 construct: Fractions containing PDE III activity are pooled and dialyzed; from tissue; host or cells: human platelets (100,000 x g supernatant, DEAE-Trisacryl M fraction)
Method: The Type III PDE is isolated from human platelets using a procedure similar to that previously described by Weishaar, R.E.; Burrows, S.D.; Kobylarg, D.C., Quade, N.M.; Evans, D.B., Biochem. Pharmacol., 35:787, 1986. Briefly, 1-2 units of platelets are suspended in an equal volume of buffer (20 mM Tris-HCl, pH 7.5, containing 2 mM magnesium acetate, 1 mM dithiothreitol, and 5 mM Na2 EDTA). The protease inhibitor phenyl methyl-sulfonyl fluoride (PMSF) is also included in this buffer at a final concentration of 200 µM. The suspension is homogenized using a polytron and the homogenate centrifuged at 100,000 x g for 60 minutes. This and all subsequent procedures are performed at 0-4°C. The supernatant is then filtered through four layers of gauze and applied to a DEAE-Trisacryl M column, previously equilibrated with buffer B (20 mM Tris-HCl, pH 7.5, containing 1 mM magnesium acetate, 1 mM dithiothreitol and 200 µM PMSF). After application of the sample, the column is washed with several bed volumes of buffer B, after which the different forms of PDE are eluted from the column using two successive linear NaCl gradients (0.05-0.15 M, 300 ml total; 0.15-0.40 M, 200 ml total). Five milliliter fractions are collected and assayed for cyclic AMP and cyclic GMP PDE activity. Fractions containing PDE III activity are pooled and dialyzed overnight against 4 liters of buffer B. The dialyzed PDE III is then concentrated to 10% of the original volume, diluted to 50% with ethylene glycol monoethyl ether and stored at -20°C.
Enzyme activity is assessed by measuring the hydrolysis of [^3H]-cyclic AMP, as described by Thompson, W.J., Teraski, W.L., Epstein, P.N., Strada, S.J.: Adv. Cyclic Nucleotide Res. 10:69, 1979. The cyclic AMP concentration used in this assay is 0.2 µM, which approximates to the Km value. Protein concentration is adjusted to ensure that no more than 15% of the available substrate is hydrolyzed during the incubation period.
All test compounds are dissolved in dimethyl sulfoxide (final concentration of 2.5%).
The compounds are tested over concentration range: 0.1, 1, 10, 100 uM (n=1), and IC50 determinations are made using 5 appropriate concentrations (n=2).

[2] = target: T2, PDE V (Homo sapiens, UniProt O76074); assay: Type V PDE activity, hydrolysis of [3H]-cyclic GMP; format: biochemical; details: enzyme from platelets; cyclic GMP 0.2 uM; 2.5% dimethyl sulfoxide
T2 construct: from tissue; host or cells: platelets (supernatant, DEAE-Trisacryl M fraction)
Method: Briefly, 1-2 units of platelets are suspended in an equal volume of buffer A (20 mM Tris-HCl, pH 7.5, containing 2 mM magnesium acetate, 1 mM dithiothreitol, and 5 mM Na2EDTA) using a polytron. The proteinase inhibitor phenylmethylsulfonyl fluoride (PMSF) are also included in this buffer at a final concentration of 200 uM. This and all subsequent procedures are performed at 0-4°C. The homogenate is then centrifuged at […] for 60 minutes. The supernatant is then removed and filtered through four layers of gauze and applied to a DEAE-Trisacryl M column. The column is washed with several bed volumes of buffer B (20 mM Tris-HCl, pH 7.5, containing 2 mM magnesium acetate, 1 mM diothiothreitol, and […] PMSF) and eluted by two successive linear NaCl gradients (0.05-0.15 M, 300 ml total; 0.15-0.40 M, 200 ml total). Five ml fractions are collected and assayed for cyclic AMP and cyclic GMP PDE activity. Fractions that contain PDE V are pooled and dialyzed overnight against 4 L of buffer C (20 mM Tris-HCl, pH 7.5, containing 2 mM magnesium acetate and proteinase inhibitors). The dialyzed PDE V is then concentrated to 10% of the original volume, diluted to 50% with ethylene glycol monoethyl ether and stored at -20°C. PDE V can typically be retained for up to four weeks with little or no loss of activity.
The reference Type V PDE inhibitor zaprinast is evaluated with each assay.

T1 sequence (Q14432 whole entry): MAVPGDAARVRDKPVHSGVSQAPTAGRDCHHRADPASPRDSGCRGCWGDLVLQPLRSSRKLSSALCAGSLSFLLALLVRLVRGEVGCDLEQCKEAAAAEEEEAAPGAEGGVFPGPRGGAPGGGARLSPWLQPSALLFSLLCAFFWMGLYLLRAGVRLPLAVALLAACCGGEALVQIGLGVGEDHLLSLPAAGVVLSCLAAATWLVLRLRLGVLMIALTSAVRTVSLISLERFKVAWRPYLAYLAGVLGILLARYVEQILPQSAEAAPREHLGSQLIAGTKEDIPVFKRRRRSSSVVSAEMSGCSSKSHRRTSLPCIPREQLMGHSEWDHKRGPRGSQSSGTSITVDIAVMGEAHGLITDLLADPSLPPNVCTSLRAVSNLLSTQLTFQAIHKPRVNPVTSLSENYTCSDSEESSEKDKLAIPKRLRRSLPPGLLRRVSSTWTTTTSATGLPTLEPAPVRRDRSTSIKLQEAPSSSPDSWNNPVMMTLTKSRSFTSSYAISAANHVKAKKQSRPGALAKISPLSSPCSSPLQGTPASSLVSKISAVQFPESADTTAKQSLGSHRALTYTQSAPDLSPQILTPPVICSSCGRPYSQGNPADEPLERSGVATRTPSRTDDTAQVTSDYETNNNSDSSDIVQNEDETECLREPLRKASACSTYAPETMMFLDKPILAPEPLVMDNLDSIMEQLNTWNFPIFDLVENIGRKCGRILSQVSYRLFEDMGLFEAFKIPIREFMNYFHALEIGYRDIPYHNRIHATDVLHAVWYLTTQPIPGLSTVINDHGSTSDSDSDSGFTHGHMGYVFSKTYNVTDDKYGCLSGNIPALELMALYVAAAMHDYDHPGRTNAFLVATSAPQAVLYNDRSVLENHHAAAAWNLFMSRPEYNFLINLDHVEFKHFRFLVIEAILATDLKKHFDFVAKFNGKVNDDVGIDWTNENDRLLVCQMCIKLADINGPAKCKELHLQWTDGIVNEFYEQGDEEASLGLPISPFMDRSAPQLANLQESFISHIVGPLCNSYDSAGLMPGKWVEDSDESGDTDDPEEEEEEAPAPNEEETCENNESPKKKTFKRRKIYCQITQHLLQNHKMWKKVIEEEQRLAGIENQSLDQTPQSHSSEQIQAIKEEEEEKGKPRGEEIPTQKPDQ

Row | IC50 [1] [µM] | IC50 [2] [µM] | Structure (SMILES)
1 | > 300 | > 300 | CC(C)(C)c1cc(Cc2nc3cc(Cl)cc(C#Cc4ccccn4)c3o2)cc(C(C)(C)C)c1O [Example 1, 5-chloro-2-(3,5-di-t-butyl-4-hydroxy-benzyl)-7-(2-(2-pyridyl)-ethynyl)-benzoxazole]
2 | > 300 | > 300 | CC(C)(C)c1cc(Cc2nc3cc(Cl)cc(C#Cc4nccs4)c3o2)cc(C(C)(C)C)c1O [Example 3, 5-chloro-2-(3,5-di-t-butyl-4-hydroxy-benzyl)-7-(2-(2-thiazolyl)-ethynyl)-benzoxazole]
3 | 620 |  | COc1ccc(C2CNC(=O)C2)cc1OC1CCCC1 (stereo not shown) [Rolipram, reference compound]

Row | Structure (SMILES) | IC50 [1] [µM] | IC50 [2] [µM]
4 | CC(C)(C)c1cc(Cc2nc3cccc(C#Cc4ccccn4)c3o2)cc(C(C)(C)C)c1O [Example 2, 2-(3,5-di-t-butyl-4-hydroxy-benzyl)-7-(2-(2-pyridyl)-ethynyl)-benzoxazole] | > 300 | 35.1
